Results from patent publication US8680012B2, “4-phenyl-pyrane-3,5-diones,4-phenyl-thiopyrane-3,6-diones and cyclohexanetriones as novel herbicides” (Syngenta Crop Protection LLC, priority 2006, dated 2014).

tested on: Avena fatua (AVEFA); test: Example A post-emergence herbicidal activity, glasshouse pot test; format: in vivo; conditions: 360 h, rate 125 g/ha, evaluated 15 days after spraying, read-out: Post-emergence activity AVEFA (100=total damage to plant; 0=no damage to plant)
Description: (§1) Seeds of a variety of test species were sown in standard soil in pots. After cultivation for one day (pre-emergence) or after 10 days cultivation (post-emergence) under controlled conditions in a glasshouse, the plants were sprayed with an aqueous spray solution derived from the formulation of the technical active ingredient in 0.6 ml acetone and 45 ml formulation solution containing 10.6% Emulsogen EL (Registry number 61791-12-6), 42.2% N-methylpyrrolidone, 42.2% dipropylene glycol monomethyl ether (Registry number 34590-94-8) and 0.2% X-77 (Registry number 11097-66-8). The test plants were then grown in a greenhouse under optimum conditions until, 15 days later for post-emergence and 20 days for pre-emergence, the test was evaluated (100=total damage to plant; 0=no damage to plant).
(§2) Alopecurus myosuroides (ALOMY), Avena fatua (AVEFA), Lolium perenne (LOLPE), Setaria faberi (SETFA), Digitaria sanguinalis (DIGSA), Echinochloa crus-galli (ECHCG)

Row | Structure (SMILES) | pest or weed control at 125 g/ha
1 | Cc1ccc(-c2ccc(Cl)cc2Cl)cc1C1=C(O)C(C)(C)OC(C)(C)C1=O [Compound A-49] | 70%
2 | Cc1ccc(-c2ccc(Cl)cc2C)cc1C1=C(O)C(C)(C)OC(C)(C)C1=O [Compound A-51] | 20%
3 | Cc1ccc(-c2ccc(Cl)c(C(F)(F)F)c2)cc1C1=C(O)C(C)(C)OC(C)(C)C1=O [Compound A-52] | 70%
4 | Cc1cc(-c2ccc(C)c(C3=C(O)C(C)(C)OC(C)(C)C3=O)c2)ccc1Cl [Compound A-53] | 10%

tested on: Lolium perenne (LOLPE); test: as above; format: in vivo; conditions: 360 h, rate 125 g/ha, evaluated 15 days after spraying, read-out: Post-emergence activity LOLPE (100=total damage to plant; 0=no damage to plant)
Description: as §1, §2

Row | Structure (SMILES) | pest or weed control at 125 g/ha
5 | Cc1ccc(-c2ccc(Cl)cc2Cl)cc1C1=C(O)C(C)(C)OC(C)(C)C1=O [Compound A-49] | 80%
6 | Cc1ccc(-c2ccc(Cl)cc2C)cc1C1=C(O)C(C)(C)OC(C)(C)C1=O [Compound A-51] | 0%
7 | Cc1ccc(-c2ccc(Cl)c(C(F)(F)F)c2)cc1C1=C(O)C(C)(C)OC(C)(C)C1=O [Compound A-52] | 30%
8 | Cc1cc(-c2ccc(C)c(C3=C(O)C(C)(C)OC(C)(C)C3=O)c2)ccc1Cl [Compound A-53] | 10%

tested on: Digitaria sanguinalis (DIGSA); test: as above; format: in vivo; conditions: 360 h, rate 125 g/ha, evaluated 15 days after spraying, read-out: Post-emergence activity DIGSA (100=total damage to plant; 0=no damage to plant)
Description: as §1, §2

Row | Structure (SMILES) | pest or weed control at 125 g/ha
9 | Cc1ccc(-c2ccc(Cl)cc2Cl)cc1C1=C(O)C(C)(C)OC(C)(C)C1=O [Compound A-49] | 70%
10 | Cc1ccc(-c2ccc(Cl)cc2C)cc1C1=C(O)C(C)(C)OC(C)(C)C1=O [Compound A-51] | 60%
11 | Cc1ccc(-c2ccc(Cl)c(C(F)(F)F)c2)cc1C1=C(O)C(C)(C)OC(C)(C)C1=O [Compound A-52] | 70%
12 | Cc1cc(-c2ccc(C)c(C3=C(O)C(C)(C)OC(C)(C)C3=O)c2)ccc1Cl [Compound A-53] | 50%

tested on: Echinochloa crus-galli (ECHCG); test: as above; format: in vivo; conditions: 360 h, rate 125 g/ha, evaluated 15 days after spraying, read-out: Post-emergence activity ECHCG (100=total damage to plant; 0=no damage to plant)
Description: as §1, §2

Row | Structure (SMILES) | pest or weed control at 125 g/ha
13 | Cc1ccc(-c2ccc(Cl)cc2Cl)cc1C1=C(O)C(C)(C)OC(C)(C)C1=O [Compound A-49] | 80%
14 | Cc1ccc(-c2ccc(Cl)cc2C)cc1C1=C(O)C(C)(C)OC(C)(C)C1=O [Compound A-51] | 80%
15 | Cc1ccc(-c2ccc(Cl)c(C(F)(F)F)c2)cc1C1=C(O)C(C)(C)OC(C)(C)C1=O [Compound A-52] | 90%
16 | Cc1cc(-c2ccc(C)c(C3=C(O)C(C)(C)OC(C)(C)C3=O)c2)ccc1Cl [Compound A-53] | 90%

tested on: Alopecurus myosuroides (ALOMY); test: as above; format: in vivo; conditions: 360 h, rate 125 g/ha, evaluated 15 days after spraying, read-out: Post-emergence activity ALOMY (100=total damage to plant; 0=no damage to plant)
Description: as §1, §2

Row | Structure (SMILES) | pest or weed control at 125 g/ha
17 | Cc1ccc(-c2ccc(Cl)cc2Cl)cc1C1=C(O)C(C)(C)OC(C)(C)C1=O [Compound A-49] | 50%
18 | Cc1ccc(-c2ccc(Cl)cc2C)cc1C1=C(O)C(C)(C)OC(C)(C)C1=O [Compound A-51] | 10%
19 | Cc1ccc(-c2ccc(Cl)c(C(F)(F)F)c2)cc1C1=C(O)C(C)(C)OC(C)(C)C1=O [Compound A-52] | 90%
20 | Cc1cc(-c2ccc(C)c(C3=C(O)C(C)(C)OC(C)(C)C3=O)c2)ccc1Cl [Compound A-53] | 30%

tested on: Setaria faberi (SETFA); test: as above; format: in vivo; conditions: 360 h, rate 125 g/ha, evaluated 15 days after spraying, read-out: Post-emergence activity SETFA (100=total damage to plant; 0=no damage to plant)
Description: as §1, §2

Row | Structure (SMILES) | pest or weed control at 125 g/ha
21 | Cc1ccc(-c2ccc(Cl)cc2Cl)cc1C1=C(O)C(C)(C)OC(C)(C)C1=O [Compound A-49] | 50%
22 | Cc1ccc(-c2ccc(Cl)cc2C)cc1C1=C(O)C(C)(C)OC(C)(C)C1=O [Compound A-51] | 40%
23 | Cc1ccc(-c2ccc(Cl)c(C(F)(F)F)c2)cc1C1=C(O)C(C)(C)OC(C)(C)C1=O [Compound A-52] | 60%
24 | Cc1cc(-c2ccc(C)c(C3=C(O)C(C)(C)OC(C)(C)C3=O)c2)ccc1Cl [Compound A-53] | 0%

tested on: Avena fatua (AVEFA); test: Example A pre-emergence herbicidal activity, glasshouse pot test; format: in vivo; conditions: 480 h, rate 250 g/ha, evaluated 20 days after spraying, read-out: Pre-emergence activity AVEFA (100=total damage to plant; 0=no damage to plant)
Description: as §1, §2

Row | Structure (SMILES) | pest or weed control at 250 g/ha
25 | Cc1ccc(-c2ccc(Cl)cc2Cl)cc1C1=C(O)C(C)(C)OC(C)(C)C1=O [Compound A-49] | 20%
26 | Cc1ccc(-c2ccc(Cl)cc2C)cc1C1=C(O)C(C)(C)OC(C)(C)C1=O [Compound A-51] | 0%
27 | Cc1ccc(-c2ccc(Cl)c(C(F)(F)F)c2)cc1C1=C(O)C(C)(C)OC(C)(C)C1=O [Compound A-52] | 0%
28 | Cc1cc(-c2ccc(C)c(C3=C(O)C(C)(C)OC(C)(C)C3=O)c2)ccc1Cl [Compound A-53] | 0%

tested on: Lolium perenne (LOLPE); test: as above; format: in vivo; conditions: 480 h, rate 250 g/ha, evaluated 20 days after spraying, read-out: Pre-emergence activity LOLPE (100=total damage to plant; 0=no damage to plant)
Description: as §1, §2

Row | Structure (SMILES) | pest or weed control at 250 g/ha
29 | Cc1ccc(-c2ccc(Cl)cc2Cl)cc1C1=C(O)C(C)(C)OC(C)(C)C1=O [Compound A-49] | 20%
30 | Cc1ccc(-c2ccc(Cl)cc2C)cc1C1=C(O)C(C)(C)OC(C)(C)C1=O [Compound A-51] | 40%
31 | Cc1ccc(-c2ccc(Cl)c(C(F)(F)F)c2)cc1C1=C(O)C(C)(C)OC(C)(C)C1=O [Compound A-52] | 10%
32 | Cc1cc(-c2ccc(C)c(C3=C(O)C(C)(C)OC(C)(C)C3=O)c2)ccc1Cl [Compound A-53] | 0%

tested on: Digitaria sanguinalis (DIGSA); test: as above; format: in vivo; conditions: 480 h, rate 250 g/ha, evaluated 20 days after spraying, read-out: Pre-emergence activity DIGSA (100=total damage to plant; 0=no damage to plant)
Description: as §1, §2

Row | Structure (SMILES) | pest or weed control at 250 g/ha
33 | Cc1ccc(-c2ccc(Cl)cc2Cl)cc1C1=C(O)C(C)(C)OC(C)(C)C1=O [Compound A-49] | 50%
34 | Cc1ccc(-c2ccc(Cl)cc2C)cc1C1=C(O)C(C)(C)OC(C)(C)C1=O [Compound A-51] | 50%
35 | Cc1ccc(-c2ccc(Cl)c(C(F)(F)F)c2)cc1C1=C(O)C(C)(C)OC(C)(C)C1=O [Compound A-52] | 100%
36 | Cc1cc(-c2ccc(C)c(C3=C(O)C(C)(C)OC(C)(C)C3=O)c2)ccc1Cl [Compound A-53] | 60%

tested on: Echinochloa crus-galli (ECHCG); test: as above; format: in vivo; conditions: 480 h, rate 250 g/ha, evaluated 20 days after spraying, read-out: Pre-emergence activity ECHCG (100=total damage to plant; 0=no damage to plant)
Description: as §1, §2

Row | Structure (SMILES) | pest or weed control at 250 g/ha
37 | Cc1ccc(-c2ccc(Cl)cc2Cl)cc1C1=C(O)C(C)(C)OC(C)(C)C1=O [Compound A-49] | 100%
38 | Cc1ccc(-c2ccc(Cl)cc2C)cc1C1=C(O)C(C)(C)OC(C)(C)C1=O [Compound A-51] | 50%
39 | Cc1ccc(-c2ccc(Cl)c(C(F)(F)F)c2)cc1C1=C(O)C(C)(C)OC(C)(C)C1=O [Compound A-52] | 70%
40 | Cc1cc(-c2ccc(C)c(C3=C(O)C(C)(C)OC(C)(C)C3=O)c2)ccc1Cl [Compound A-53] | 10%

tested on: Alopecurus myosuroides (ALOMY); test: as above; format: in vivo; conditions: 480 h, rate 250 g/ha, evaluated 20 days after spraying, read-out: Pre-emergence activity ALOMY (100=total damage to plant; 0=no damage to plant)
Description: as §1, §2

Row | Structure (SMILES) | pest or weed control at 250 g/ha
41 | Cc1ccc(-c2ccc(Cl)cc2Cl)cc1C1=C(O)C(C)(C)OC(C)(C)C1=O [Compound A-49] | 0%
42 | Cc1ccc(-c2ccc(Cl)cc2C)cc1C1=C(O)C(C)(C)OC(C)(C)C1=O [Compound A-51] | 0%
43 | Cc1ccc(-c2ccc(Cl)c(C(F)(F)F)c2)cc1C1=C(O)C(C)(C)OC(C)(C)C1=O [Compound A-52] | 0%
44 | Cc1cc(-c2ccc(C)c(C3=C(O)C(C)(C)OC(C)(C)C3=O)c2)ccc1Cl [Compound A-53] | 10%

tested on: Setaria faberi (SETFA); test: as above; format: in vivo; conditions: 480 h, rate 250 g/ha, evaluated 20 days after spraying, read-out: Pre-emergence activity SETFA (100=total damage to plant; 0=no damage to plant)
Description: as §1, §2

Row | Structure (SMILES) | pest or weed control at 250 g/ha
45 | Cc1ccc(-c2ccc(Cl)cc2Cl)cc1C1=C(O)C(C)(C)OC(C)(C)C1=O [Compound A-49] | 50%
46 | Cc1ccc(-c2ccc(Cl)cc2C)cc1C1=C(O)C(C)(C)OC(C)(C)C1=O [Compound A-51] | 10%
47 | Cc1ccc(-c2ccc(Cl)c(C(F)(F)F)c2)cc1C1=C(O)C(C)(C)OC(C)(C)C1=O [Compound A-52] | 80%
48 | Cc1cc(-c2ccc(C)c(C3=C(O)C(C)(C)OC(C)(C)C3=O)c2)ccc1Cl [Compound A-53] | 10%
